Experimental data: patent US20210392936A1, “Nutritional composition comprising urea and non-digestible oligosaccharides” (N.V. Nutricia, priority 2018, published 2021)

Assays:
[1] = system: Bifidobacterium longum subspecies infantis ATCC 17930 (urease positive); test: Growth of strain ATCC 17930 with or without urea, CO2 and 2'FL as carbon source (Example 4); assay type: cell-based; details: 10 mM urea
Procedure: In this experiment the urease positive strain Bifidobacterium longum subspecies infantis ATCC 17930, was used. The same growth media and experimental set up as in the second experiment described in example 3 was used, except that instead of scGOS/IcFOS, 2′-fucosyllactose (Jennewein Biotechnologie GmbH) was used as a carbon and energy source. As a nitrogen source tryptone was added (3.0 g/l), or no urea or 10 mM urea (final concentration), corresponding to 0, or 0.6 g/l urea.

[2] = system: urease positive Bifidobacteria (mix of Bifidobacterium longum subspecies infantis strains and Bifidobacterium bifidum ATCC29521); test: Fermenter growth of urease positive Bifidobacteria mix with or without urea and CO2 (Example 3, first experiment); assay type: cell-based; details: urea N source (100 mM), lactose 20 g/l
Description: (§1) The following strains were used: Bifidobacterium breve DSM20213, which is the type strain of B. breve and urease negative. A mix of Bifidobacterium longum subspecies infantis strains was used that were predicted to be urease positive, to increase the chance of having a urease activity. […] Strains used were a mix of Bifidobacterium longum spp infantis DSM20088 (type strain), B. infantis M-63 (Morinaga), B. longum subspecies infantis ATCC 17930, B. longum subspecies infantis DN_163_0041 isolated from the faeces of a bottle-fed infants, B. infantis DN_163_0046 and B. longum ssp. infantis R-0033 (Lallemand) and Bifidobacterium bifidum ATCC29521 (type strain).
(§2) g/l yeast extract, 0.75 g/l tryptone, 3 g/l KH2PO4, 4.8 g/l K2HPO4, 0.2 g/l MgSO4, 0.5 g Cysteine.HCl, 15 g Sodium Propionate, supplemented with 10 ml vitamin mix and 10 ml metal mix from 100× concentrates (Teusink et al. 2005, AEM, Vol 71 (issue 11) p. 7253-7262) and 100 μM NiCl. The pH of this medium is 6.8 (+/−0.05). As carbon source 20 g/l lactose was used and when appropriate urea was added to a final concentration of 100 mM. The medium was sterilized using filtration step with a 0.22 μm filter. […] Precultures of bifidobacterium strains were grown statically in absence of urea at 37° C. in an anaerobic atmosphere (90% N2, 5% Hz, 5% CO2).
(§3) Inoculation occurred from a single colonies grown on TOS-mupirocin agar plates as known in the art. The main cultures (in the fermenters) were performed with 1×BASE supplemented with 0, 15, 50 or 100 mM urea (if applicable). During fermentation the headspace was flushed with N2 gas or with an anaerobic gas mixture ((90% N2, 5% H2, 5% CO2). CO2 is known to be needed for the growth of most Bifidobacteria in the absence of substrates that can liberate CO2.
(§4) The main fermenters were inoculated with the preculture of B. breve at an OD600 of 0.05. For the B. longum subspecies infantis and bifidum mix the individual precultures were first mixed in an equal amount based on OD600 and subsequently also inoculated with a start OD600 of 0.05. The medium was stirred at 360 rpm by magnet stirring bar. The pH was controlled at 6.2 by addition of 5M NaOH. All growth (precultures, main fermenters, agar plates) experiments were performed at 37° C. Growth was monitored in time by off-line OD600 measurement. Samples were diluted before measurement where appropriate.

[3] = system: urease negative Bifidobacteria (Bifidobacterium breve DSM20213); test: Growth with urea or tryptone as nitrogen source, scGOS/IcFOS as carbon source (Example 3, second experiment), urease negative; assay type: cell-based; details: CO2 gas, 50 mM urea, scGOS/IcFOS 20 g/l
[4] = system: Bifidobacterium breve DSM20213 (urease negative); test: Fermenter growth of urease negative Bifidobacterium with or without urea and CO2 (Example 3, first experiment); assay type: cell-based; details: urea N source (100 mM), lactose 20 g/l
Description: as §1, §2, §3, §4

[5] = system: B. longum spp infantis M-63, B. longum subspecies infantis ATCC 17930, B. longum ssp. infantis R-0033 (single strains); test: Growth of single urease positive strains with urea and a carbon source without CO2 and other nitrogen source; assay type: cell-based, Bifidobacterium longum subspecies infantis; details: presence of urea and a carbon source, absence of CO2 and other nitrogen source; data not shown
Description: as §1

SMILES: NC(N)=O [urea]
- Growth expressed as OD600 ([1]; CO2 gas, with 2'FL C source (+), 30 min): 0.072 OD600
- Growth expressed as OD600 ([1]; CO2 gas, with 2'FL C source (+), 240 min): 0.298 OD600
- Growth expressed as OD600 ([1]; CO2 gas, with 2'FL C source (+), 360 min): 0.880 OD600
- Growth expressed as OD600 ([1]; CO2 gas, with 2'FL C source (+), 540 min): 2.070 OD600
- Growth expressed as OD600 ([1]; CO2 gas, with 2'FL C source (+), 24 h): 3.060 OD600
- Growth expressed as OD600 ([1]; CO2 gas, without 2'FL C source (−), 30 min): 0.071 OD600
- Growth expressed as OD600 ([1]; CO2 gas, without 2'FL C source (−), 240 min): 0.203 OD600
- Growth expressed as OD600 ([1]; CO2 gas, without 2'FL C source (−), 360 min): 0.191 OD600
- Growth expressed as OD600 ([1]; CO2 gas, without 2'FL C source (−), 540 min): 0.191 OD600
- Growth expressed as OD600 ([1]; CO2 gas, without 2'FL C source (−), 24 h): 0.187 OD600
- Growth expressed as OD600 ([1]; N2 gas, with 2'FL C source (+), 30 min): 0.079 OD600
- Growth expressed as OD600 ([1]; N2 gas, with 2'FL C source (+), 240 min): 0.154 OD600
- Growth expressed as OD600 ([1]; N2 gas, with 2'FL C source (+), 360 min): 0.350 OD600
- Growth expressed as OD600 ([1]; N2 gas, with 2'FL C source (+), 540 min): 0.600 OD600
- Growth expressed as OD600 ([1]; N2 gas, with 2'FL C source (+), 24 h): 1.320 OD600
- Growth expressed as OD600 ([1]; N2 gas, without 2'FL C source (−), 30 min): 0.068 OD600
- Growth expressed as OD600 ([1]; N2 gas, without 2'FL C source (−), 240 min): 0.175 OD600
- Growth expressed as OD600 ([1]; N2 gas, without 2'FL C source (−), 360 min): 0.179 OD600
- Growth expressed as OD600 ([1]; N2 gas, without 2'FL C source (−), 540 min): 0.163 OD600
- Growth expressed as OD600 ([1]; N2 gas, without 2'FL C source (−), 24 h): 0.157 OD600
- Growth expressed as OD600 ([2]; CO2 gas, 60 min): 0.099 OD600
- Growth expressed as OD600 ([2]; CO2 gas, 180 min): 0.168 OD600
- Growth expressed as OD600 ([2]; CO2 gas, 360 min): 0.680 OD600
- Growth expressed as OD600 ([2]; CO2 gas, 660 min): 3.940 OD600
- Growth expressed as OD600 ([2]; CO2 gas, 23 h): 3.850 OD600
- Growth expressed as OD600 ([2]; N2 gas, 60 min): 0.095 OD600
- Growth expressed as OD600 ([2]; N2 gas, 180 min): 0.161 OD600
- Growth expressed as OD600 ([2]; N2 gas, 360 min): 0.560 OD600
- Growth expressed as OD600 ([2]; N2 gas, 660 min): 3.930 OD600
- Growth expressed as OD600 ([2]; N2 gas, 23 h): 3.700 OD600
- Growth expressed as OD600 ([3]; 15 min): 0.074 OD600
- Growth expressed as OD600 ([3]; 135 min): 0.125 OD600
- Growth expressed as OD600 ([3]; 270 min): 0.280 OD600
- Growth expressed as OD600 ([3]; 445 min): 0.460 OD600
- Growth expressed as OD600 ([3]; 625 min): 0.590 OD600
- Growth expressed as OD600 ([3]; 24 h): 1.020 OD600
- Growth expressed as OD600 ([4]; CO2 gas, 60 min): 0.062 OD600
- Growth expressed as OD600 ([4]; CO2 gas, 180 min): 0.083 OD600
- Growth expressed as OD600 ([4]; CO2 gas, 360 min): 0.211 OD600
- Growth expressed as OD600 ([4]; CO2 gas, 660 min): 1.560 OD600
- Growth expressed as OD600 ([4]; CO2 gas, 23 h): 2.250 OD600
- Growth expressed as OD600 ([4]; N2 gas, 60 min): 0.051 OD600
- Growth expressed as OD600 ([4]; N2 gas, 180 min): 0.061 OD600
- Growth expressed as OD600 ([4]; N2 gas, 360 min): 0.072 OD600
- Growth expressed as OD600 ([4]; N2 gas, 660 min): 0.054 OD600
- Growth expressed as OD600 ([4]; N2 gas, 23 h): 0.046 OD600
- Growth of single strains [5]: able to grow very well
